In EPA's CvTdb concentration-time database:

Legend:
Assay in all cases: concentration in plasma after dosing
[1] = system: Rat; conditions: 5 min; dosed: Di-n-butyl phthalate; 20 mg/kg; iv; Male; Sprague-Dawley
[2] = system: Rat; conditions: 10 min; dosed: Di-n-butyl phthalate; 20 mg/kg; iv; Male; Sprague-Dawley
[3] = system: Rat; conditions: 5 min; dosed: Di-n-butyl phthalate; 20 mg/kg; iv; Male; Sprague-Dawley; remark: listed apart in the source
[4] = system: Rat; conditions: 10 min; dosed: Di-n-butyl phthalate; 20 mg/kg; iv; Male; Sprague-Dawley; remark: listed apart in the source
[5] = system: Rat; conditions: iv
[6] = system: Rat; conditions: dosed: perfluorohexane-1-sulphonic acid – potassium salt, 4 mg/kg, iv, Female, F344
[7] = system: Rat; conditions: dosed: perfluorohexane-1-sulphonic acid – potassium salt, 4 mg/kg, iv, Female, F344; remark: listed apart in the source
[8] = system: Rat; conditions: dosed: perfluorohexane-1-sulphonic acid – potassium salt, 4 mg/kg, iv, Female, F344; remark: listed apart in the source
[9] = system: Rat; conditions: dosed: perfluorohexane-1-sulphonic acid – potassium salt, 4 mg/kg, iv, Female, F344; remark: listed apart in the source
[10] = system: Rat; conditions: dosed: perfluorohexane-1-sulphonic acid – potassium salt, 4 mg/kg, iv, Female, F344; remark: listed apart in the source
[11] = system: Rat; conditions: dosed: perfluorohexane-1-sulphonic acid – potassium salt, 4 mg/kg, iv, Female, F344; remark: listed apart in the source
[12] = system: Rat; conditions: dosed: perfluorohexane-1-sulphonic acid – potassium salt, 4 mg/kg, iv, Female, F344; remark: listed apart in the source
[13] = system: Rat; conditions: dosed: perfluorohexane-1-sulphonic acid – potassium salt, 4 mg/kg, iv, Female, F344; remark: listed apart in the source
[14] = system: Rat; conditions: dosed: perfluorohexane-1-sulphonic acid – potassium salt, 4 mg/kg, iv, Female, F344; remark: listed apart in the source
[15] = system: Rat; conditions: dosed: perfluorohexane-1-sulphonic acid – potassium salt, 4 mg/kg, iv, Female, F344; remark: listed apart in the source
[16] = system: Rat; conditions: dosed: perfluorohexane-1-sulphonic acid – potassium salt, 4 mg/kg, iv, Female, F344; remark: listed apart in the source
[17] = system: Rat; conditions: dosed: perfluorohexane-1-sulphonic acid – potassium salt, 4 mg/kg, iv, Female, F344; remark: listed apart in the source
[18] = system: Rat; conditions: dosed: perfluorohexane-1-sulphonic acid – potassium salt, 4 mg/kg, iv, Female, F344; remark: listed apart in the source
[19] = system: Rat; conditions: dosed: perfluorohexane-1-sulphonic acid – potassium salt, 4 mg/kg, iv, Female, F344; remark: listed apart in the source
[20] = system: Rat; conditions: dosed: perfluorohexane-1-sulphonic acid – potassium salt, 4 mg/kg, iv, Female, F344; remark: listed apart in the source
[21] = system: Rat; conditions: dosed: perfluorohexane-1-sulphonic acid – potassium salt, 4 mg/kg, iv, Female, F344; remark: listed apart in the source
[22] = system: Rat; conditions: dosed: perfluorohexane-1-sulphonic acid – potassium salt, 4 mg/kg, iv, Female, F344; remark: listed apart in the source
[23] = system: Rat; conditions: dosed: perfluorohexane-1-sulphonic acid – potassium salt, 4 mg/kg, iv, Female, F344; remark: listed apart in the source
[24] = system: Rat; conditions: 1 h; dosed: perfluorohexane-1-sulphonic acid – potassium salt; 4 mg/kg; iv; Female; F344
[25] = system: Rat; conditions: dosed: perfluorohexane-1-sulphonic acid – potassium salt, 4 mg/kg, iv, Female, F344; remark: listed apart in the source
[26] = system: Rat; conditions: dosed: perfluorohexane-1-sulphonic acid – potassium salt, 4 mg/kg, iv, Female, F344; remark: listed apart in the source
[27] = system: Rat; conditions: dosed: perfluorohexane-1-sulphonic acid – potassium salt, 4 mg/kg, iv, Female, F344; remark: listed apart in the source
[28] = system: Rat; conditions: 192 h; dosed: perfluorohexane-1-sulphonic acid – potassium salt; 4 mg/kg; iv; Female; F344
[29] = system: Rat; conditions: dosed: perfluorohexane-1-sulphonic acid – potassium salt, 4 mg/kg, iv, Female, F344; remark: listed apart in the source
[30] = system: Rat; conditions: dosed: perfluorohexane-1-sulphonic acid – potassium salt, 4 mg/kg, iv, Female, F344; remark: listed apart in the source

CCCCOC(=O)c1ccccc1C(=O)OCCCC [Di-n-butyl phthalate]
Conditions	concentration in plasma [ng/mL]
[1]	1210
[2]	2950
[3]	10700
[4]	4220

[5], dosed: Di-n-butyl phthalate, 20 mg/kg, Male, Sprague-Dawley
Conditions	concentration in plasma [ng/mL]
5 min	9370
10 min	3520
20 min	957

O=S(=O)([O-])C(F)(F)C(F)(F)C(F)(F)C(F)(F)C(F)(F)C(F)(F)F.[K+] [perfluorohexane-1-sulphonic acid – potassium salt]
Conditions	concentration in plasma [ng/mL]
[6], 5 min	842
[6], 6 h	298
[7], 3 h	3150
[7], 96 h	484
[8], 0.25 h	4330
[8], 12 h	1840
[9], 0.5 h	3970
[9], 24 h	2200
[9], 1200 h	494
[10], 0.5 h	4200
[10], 24 h	1370
[11], 0.25 h	2050
[11], 6 h	1440
[11], 528 h	491
[12], 0.5 h	3610
[12], 12 h	2480
[12], 864 h	496
[13], 3 h	2380
[13], 5 min	4710
[13], 192 h	1450
[14], 0.25 h	4180
[14], 6 h	2530
[14], 864 h	818
[15], 3 h	3290
[15], 96 h	566
[16], 0.5 h	2900
[16], 12 h	2090
[16], 1200 h	288
[17], 5 min	6140
[17], 6 h	2330
[17], 192 h	118
[18], 3 h	2550
[18], 96 h	387
[19], 5 min	5590
[19], 6 h	2440
[19], 192 h	126
[20], 1 h	3180
[20], 48 h	842
[21], 0.25 h	4180
[21], 12 h	1750
[22], 0.5 h	4010
[22], 24 h	1450
[23], 1 h	3140
[23], 24 h	2330
[23], 1200 h	393
[25], 0.25 h	5150
[25], 12 h	2040
[26], 1 h	3840
[26], 48 h	1000
[27], 0.5 h	4140
[27], 24 h	1650
[29], 1 h	3150
[29], 48 h	1130
[30], 3 h	2910
[30], 5 min	6770
[30], 528 h	879

Conditions	concentration in plasma [ng/mL]
[24]	170
[28]	1390

[5], dosed: perfluorohexane-1-sulphonic acid – potassium salt, 4 mg/kg, Female, F344
Conditions	concentration in plasma [ng/mL]
0.25 h	3900
1 h	3190
3 h	1890
5 min	5260
6 h	2390
12 h	2230
24 h	2030
192 h	1200
528 h	519
864 h	551
